{"source": "paper PMC5108032", "about": "“Discovery of a Quinoline-4-carboxamide Derivative with a Novel Mechanism of Action, Multistage Antimalarial Activity, and Potent in Vivo Efficacy” (Journal of Medicinal Chemistry, 2016)", "data": [{"tested_on": "not listed separately", "test": "Intrinsic clearance (Cli) in rat liver microsomes", "format": "in vitro ADME", "conditions": "rat liver microsome", "source_text": "(§1) inhibition at top, C= EC50, D= slope, x= inhibitor concentration and y= % inhibition. […]\n(§2) reach 100% of inhibition, B was fixed to 100 only when at least 50% of inhibition was reached.\n(§3) Plasmodium falciparum late stage (IV-V) gametocyte high content imaging assay Plasmodium falciparum NF54-pfs16-LUC-GFP stage IV-V Gametocytes were produced as described previously.5 Compounds were solubilized in DMSO and serially diluted in three concentrations per log standard curves in DM SO. One µl of compound was subsequently diluted in 25µl of water (4% DMSO) and 5µl transferred into the base of 384 well PerkinElmer CellCarrier plates. Forty-five µl of stage IV-V gametocytes (10%P in 0.1%H) were added to the imaging plates which were in turn sealed with a gas permeable membrane and incubated at 37°C, 5% CO 2, 5% O2, 90% N2 and 60% humidity […]\nPost incubation, 5µl of MitoTracker® Red CM -H2Xros (MTR) solution (0.66ug/ml) was added to all wells and the plates incubated for a further 16hours. The assay plates were then imaged and the number of viable gametocytes determined for test compounds plus 0.4%DMSO and 5µM Puromycin.\n(0.4%DMSO) control values. Percent inhibition was plotted against log compound concentration using a 4 parameter log dose, non-linear regression analysis, with sigmoidal dose response (variable slope) curve fit using Prizm 4.0. IC50 values were obtained from this curve fit. The compound testing was performed in duplicate point within two separate experiments.\nPlasmodium berghei ookinete development assay\nAssay was performed as previously reported.6 Briefly blood containing P. berghei CTRPp-GFP gametocytes was rapidly harvested from infected mice and introduced to test compounds pre-diluted in ookinete medium (to induce gamete formation and support ookinete development) in 96-well plates. Plates were incubated in the dark at 21°C for 22 hr before GFP fluorescence intensity measured in a plate reader. % inhibition of ookinete formation was calculated with reference to the fluorescence intensity values of a positive control (20 µM cycloheximide) and a solvent-only negative control (DMSO). All assays were performed in triplicate independent experiments and EC50 values calculated in Graphpad Prism.\nThe aqueous solubility of the test compounds was measured using laser nephelometry, as described previously.7 Compounds were subject to serial dilution from 10 mg/mL to 0.5 mg/mL in DMSO. An aliquot was then mixed with MilliQ water to obtain an aqueous dilution plate with a final concentration range of 100 – 5 μg/mL, with a final DMSO concentration of 1.0%. Triplicate aliquots were transferred to a flat bottomed polystyrene plate which was immediately read on the NEPHELOstar (BMG Lab Technologies). The amount of laser scatter caused by insoluble particulates (relative nephelometry units, RNU) was plotted against compound concentration using a segmental regression fit, with the point of inflection being quoted as the compounds aqueous solubility (μg/mL; […]\nIntrinsic Clearance (Cli) experiments\nThe procedure was carried out as reported previously.7 Test compound (0.5 µM) was incubated with female CD1 mouse, male sprague-dawley rat or pooled human mixed gender liver microsomes (Xenotech LLC TM; 0.5 mg/mL 50 mM potassium phosphate buffer, pH 7.4) and the reaction initiated […]\nby the addition of excess NADPH (8 mg/mL 50 mM potassium phosphate buffer, pH 7.4). […]", "units": {"RLM Cli": "mL min^–1 g^–1"}, "values": [{"smiles": "O=C(NCCN1CCCC1)c1cc(NCCCN2CCOCC2)nc2ccc(F)cc12", "note": "[Compound 25, 6-Fluoro-2-((3-morpholinopropyl)amino)-N-(2-(pyrrolidin-1-yl)ethyl)quinoline-4-carboxamide]", "RLM Cli": "<0.5"}, {"smiles": "O=C(NCCN1CCCC1)c1cc(-c2ccc(CN3CCOCC3)cc2F)nc2ccc(F)cc12", "note": "[Compound 41]", "RLM Cli": "<0.5"}, {"smiles": "O=C(NCCN1CCCC1)c1cc(NCCC2CCOCC2)nc2ccc(Cl)cc12", "note": "[Compound 30, 6-Chloro-N-(2-(pyrrolidin-1-yl)ethyl)-2-((2-(tetrahydro-2H-pyran-4-yl)ethyl)amino)quinoline-4-carboxamide]", "RLM Cli": 0.8}]}, {"tested_on": "Plasmodium falciparum strain 3D7", "test": "Plasmodium falciparum screening, SYBR green growth inhibition", "format": "cell-based", "conditions": "3D7, supplementary csv, read-out: Pf (3D7) EC50", "method": "Plasmodium falciparum screening\nAssays against P. falciparum were conducted as previously described.1 Cultures of the widely-used malaria reference strain of chloroquine-sensitive Plasmodium falciparum strain 3D7 were maintained in a 5% suspension of human red blood cells (obtained from East of Scotland Blood Transfusion Service, Ninewells Hospital, Dundee) cultured in RPMI 1640 medium (pH 7.3) supplemented with 0.5% Albumax II (Gibco Life Technologies, San Diego, CA), 12 mM sodium bicarbonate, 0.2 mM hypoxanthine and 20 mg/L gentamicin at 37°C, in a humidified atmosphere of 1% O 2, 3% CO2 with a balance of nitrogen. Growth inhibition was quantified using a fluorescence assay utilising the binding of SYBR green to double stranded DNA, which emits a fluorescent signal at 528 nm after excitation at 485nm.2 Mefloquine (potency range 30-60 nM) was used as a drug control to monitor the quality of the assay (Z’ = 0.6 to 0.8, Signal to background >3, where Z’ is a measure of the discrimination between the positive and negative controls on a screen plate). A 96-well [3H]-Hypoxanthine incorporation assay was also developed as a secondary assay in order to validate compounds from the initial screen in an orthogonal platform.3 Compound bioactivity from both assays was expressed as […]\nP. falciparum (panel of resistant strains) in vitro assay. (Swiss TPH)\nAll Plasmodium strains were cultured according to Trager and Jensen and are described at www.beiresources.org (resistant strains: K1, W2, 7G8, TM90C2A, D6 and V1/S, sensitive strain:\nNF54). EC50 values were determined in vitro by measuring incorporation of the nucleic acid precursor […]\nMammalian Cell Growth Inhibition assay\nA counter-screen against normal diploid human fibroblasts (MRC-5 cell line) was carried out to exclude non-selective, and toxic compounds. The assay was essentially carried out as described previously.4 Cells were plated and incubated overnight to allow them to adhere as monolayers. A working stock of each test compound was transferred to an intermediate 384-well plate and pre-diluted with minimum essential media (MEM). The pre-diluted stocks were then transferred onto the cell monolayers, and the plates were incubated for 68 h. Resazurin, to a final concentration of 50 μM, was added to each well, after which plates were incubated for a further 3 h and measured for fluorescence (λex=528 nm, λem=590 nm)\nIn vitro Cell Assay Data Analysis.\nAll data was processed using IDBS ActivityBase® raw data was converted into per cent inhibition through linear regression by setting the high inhibition control as 100% and the no inhibition control as 0%. Quality control criteria for passing plates were as follows: Z’> 0.5, S:B> 3, %CV(no inhibition < 15 . The formula used to calculate Z’ is 1 3× (St D e v _ hi gh + St D e v _ low) . […]\nAll EC50 Curve fitting was undertaken using XLFit version 4.2 using Model 205 with the following 4 parametric equation: y = A + B A A + ($-&) ,where A=% inhibition at bottom, B=% […]\nas §1, §2, §3\nPost incubation, 5µl of MitoTracker® Red CM -H2Xros (MTR) solution (0.66ug/ml) was added to all wells and the plates incubated for a further 16hours. […]", "units": {"EC50": "nM"}, "values": [{"smiles": "O=C(NCCN1CCCC1)c1cc(-c2ccc(CN3CCOCC3)cc2F)nc2ccc(F)cc12", "note": "[Compound 41]", "EC50": 1.9}, {"smiles": "O=C(NCCN1CCCC1)c1cc(-c2ccc(S(=O)(=O)N3CCOCC3)cc2)nc2ccc(F)cc12", "note": "[Compound 38, 6-Fluoro-2-(4-(morpholinosulfonyl)phenyl)-N-(2-(pyrrolidin-1-yl)ethyl)quinoline-4-carboxamide]", "EC50": 4.4}, {"smiles": "O=C(NCCN1CCCC1)c1cc(NCCCCN2CCOCC2)nc2ccc(Cl)cc12", "note": "[Compound 27, 6-Chloro-2-((4-morpholinobutyl)amino)-N-(2-(pyrrolidin-1-yl)ethyl)quinoline-4-carboxamide]", "EC50": 3.8}]}]}
